Results from patent publication US7667070B2, “Lipophilic compounds and uses thereof” (Centre National de la Recherche Scientifique (CNRS), priority 2002, dated 2010).

How the values were obtained:
mice's lungs = test: In vivo transfection of luciferase plasmid DNA complexed with cationic lipid (luciferase in lungs, RLU); set-up: species or system mice of the Swiss lineage; details: mouse, 50 μg plasmid DNA as lipid/DNA complex; alone or with DOPE or cholesterol; FIG. 6
Description: Cationic lipid/DNA complexes are prepared according to a charge (+/−) ratio of 4 and are administered to six week old mice of the Swiss lineage through one single injection into the caudal vein. Each animal receives a volume of 200 μl of a solution of the tested lipid/DNA complex, corresponding to 50 μg plasmid DNA coding the luciferase protein.
The animals are sacrificed 24 hours after the injection and each organ of interest id deep frozen in liquid nitrogen and then stored at a temperature of −70° C.
The deep frozen tissues are ground with steel balls in a 2 ml round bottom tube of the Epperdorf type using a device of the Mill MM300 mixer type (marketed by QIAGEN Company; reference: 0030120-094).
The extraction of the proteins from each tissue is performed by incubating the ground tissues in a PLB lysis buffer (Promega) followed by a centrifugation at 10,000 g, 10 min at 4° C. […]
Parallelly, the total protein concentration is measured using the <<Coomassie Plus Reagent Assay Kit>> (marketed by Pierce Company). […]
A comparative study of different cationic lipids is conducted by varying the linking part (Group R^3) between the hydrophobic domain and the hydrophilic domain, in mouse. Each lipid is evaluated separately or in admixture with the DOPE compound or cholesterol, used as co-lipids, as described in the <<Material and Methods>> section.

[1] = system: K 562, Jurkat, Daudi, HeLa, CFPAC cells; test: Determination of the cell toxicity of lipid/DNA complexes (CYTOLITE chemiluminescent test, toxicity index); format: cell-based; details: 48 hours after transfection; non transfected cells as controls
Description: The relative cytotoxicity of the different cationic phosphonolipid/DNA complexes is determined as a representation of the number of living cells after the transfection experiment, measured by using a chemiluminescent test, the CYTOLITE® test (marketed by PACKARD Company, France) following the manufacturer's recommendations.
The cell transfection is conducted following the procedure described in the above Section A.3.
On the day of the transfection, cells are seeded in 24-well plate wells at a level of: • 500,000 cells per well for the non adherent cell lineages (K 562. Jurkat, Daudi); and • 150,000 cells per well for the adherent cell lineages (HeLa, CFPAC cells in primary culture).
The cells are treated for the transfection as described hereinabove and incubated for another period of 48 hours.
After incubation, the cytotoxicity test is conducted following the manufacturer's recommendations.
The amount of relative light units (RLU for <<Relative light units>>) being formed is proportional to the number of living cells.
The non transfected cells are used as controls.
The final results are expressed following a toxicity index. The toxicity index represents the ratio between the number of living cells in the control cultures (without cationic lipids/DNA complex) and the number of living cells in the culture wells containing the transfected cells.

CCCCCCCC/C=C\CCCCCCCCOP(=O)(NCCC[P+](C)(C)C)OCCCCCCCC/C=C\CCCCCCCC.[I-] [KLN20, dioleyl 3-(trimethylphosphonio)propylamidophosphate iodide]
in vivo transfection efficiency (luciferase amount found in lungs) (mice's lungs): most efficient

CCCCCCCCCCCCCCOP(=O)(OCCCCCCCCCCCCCC)N(C)CCC[N+](C)(C)C.[I-] [KLN 5, 3-[[bis(tetradecyloxy)phosphoryl](methyl)amino]-N.N.N-trimethyl-propanaminium iodide]
cytotoxicity (toxicity index: living cells in control cultures / living cells in transfected cultures) [1]: does not show any toxicity
